From EP0606463B1, “NEUROMEDIN B RECEPTOR ANTAGONISTS” (The Administrators of The Tulane Educational Fund, priority 1992, dated 1994)
Where a SMILES comes first, the peptide text is derived from it. Bridges are numbered along the chain shown (N, C = ends). [ ]: non-standard residue; d: D form. 2Nal = N[C@@H](Cc1ccc2ccccc2c1)C(=O)O; d2Nal = N[C@H](Cc1ccc2ccccc2c1)C(=O)O; Lys(iPr) = CC(C)NCCCC[C@H](N)C(=O)O

Assays:
[1] = biological target: T1, GRP Receptor (Rattus norvegicus, UniProt P52500); assay: Amylase release from rat pancreatic acini; assay type: cell-based; details: for Rat Pancreatic Acini Amylase Release Alone (10µM): analog 10 µM alone, no-additive control 4 ± 1; for Rat Pancreatic Acini Amylase Release Plus Bn(0.3 nM): analog 10 µM plus Bn 0.3 nM, Bn without analog 15 ± 1
T1 construct: from tissue; host or cells: dispersed pancreatic acini
T1 sequence (P52500 whole entry): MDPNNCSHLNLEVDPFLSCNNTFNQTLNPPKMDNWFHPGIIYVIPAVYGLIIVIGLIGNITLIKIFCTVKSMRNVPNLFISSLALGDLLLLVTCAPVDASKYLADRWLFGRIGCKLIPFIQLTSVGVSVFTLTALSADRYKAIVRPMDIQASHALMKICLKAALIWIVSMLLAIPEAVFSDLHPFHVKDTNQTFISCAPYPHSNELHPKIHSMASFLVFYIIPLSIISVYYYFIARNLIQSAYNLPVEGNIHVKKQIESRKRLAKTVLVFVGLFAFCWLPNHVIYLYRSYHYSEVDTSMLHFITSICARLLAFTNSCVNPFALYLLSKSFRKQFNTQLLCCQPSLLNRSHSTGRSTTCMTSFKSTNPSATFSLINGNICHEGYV

[2] = biological target: T2, rat NMB receptor (Rattus norvegicus, UniProt P24053); assay: Binding of 125I-[D-Tyr0]NMB to NMB-R transfected BALB 3T3 cells; details: for fold by which cyclo SS-octa was more potent than the analog: inhibition of ^125I-[Tyr^0]NMB binding to NMB-R transfected cells
T2 construct: a full length NMB-preferring bombesin receptor clone generated from rat esophagus; expressed in transfected cells; host or cells: BALB 3T3 cells
T2 sequence (P24053 1-390): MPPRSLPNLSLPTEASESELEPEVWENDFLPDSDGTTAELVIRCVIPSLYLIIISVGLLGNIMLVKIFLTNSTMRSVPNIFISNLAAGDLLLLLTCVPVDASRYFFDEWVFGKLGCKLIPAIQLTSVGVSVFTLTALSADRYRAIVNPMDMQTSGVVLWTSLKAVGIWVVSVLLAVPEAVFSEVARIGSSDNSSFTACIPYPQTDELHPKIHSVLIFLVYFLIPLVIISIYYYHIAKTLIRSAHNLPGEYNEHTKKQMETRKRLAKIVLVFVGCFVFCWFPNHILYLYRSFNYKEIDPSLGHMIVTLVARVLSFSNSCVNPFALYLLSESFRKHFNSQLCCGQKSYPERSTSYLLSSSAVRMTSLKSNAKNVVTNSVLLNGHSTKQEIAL
Description: (§1) Cells were passaged every 3-4 days at confluence, using 0.1% trypsin in 1 mM EDTA. Rat glioblastoma C-6 tumor cells were maintained similarly and were passaged weekly at confluence. Both cell lines were cultured at 37°C in a 5% CO2 atmosphere. Rat AR 42J pancreatic acinar cells were cultured in Dulbecco's modified Eagle's medium (DMEM) without antibiotics and supplemented with 10% (vol/vol) fetal calf serum. The incubation atmosphere consisted of 10% CO2-90% humidified air at 37°C.

[3] = biological target: T3, NMB Receptor (Rattus norvegicus, UniProt P24053); assay: [3H]inositol phosphates (IP) in NMB-R transfected cells; assay type: cell-based; details: for effect on NMB-stimulated increase in [^3H]IP: NMB-R transfected cells, 3 nM NMB, peptide 10 µM; for NMB-R Transfected Cells [^3H]IP Alone (10 µ M): analog 10 µM alone, no-additive control 13 ± 3; for NMB-R Transfected Cells [^3H]IP Plus NMB (3 nM): analog 10 µM plus NMB 3 nM, NMB without analog 186 ± 58
T3 construct: a full length NMB-preferring bombesin receptor clone generated from rat esophagus; expressed in transfected cells; host or cells: BALB 3T3 cells
T3 sequence (P24053 1-390): T2 sequence (P24053 1-390)
Description: as §1, with “As described previously [Wada, E., et al. Neuron 6:421 (1991)], BALB 3T3 cells expressing a stably transfected rat NMB receptor (NMB-R transfected cells) were obtained using calcium phosphate precipitation of a full length NMB-preferring bombesin receptor clone generated from rat esophagus and subcloned into a modified version of the pCD2 plasmid. Cells” for “Cells”
Total phosphoinositides in C-6 cells and in NMB-R transfected cells were determined as described previously, with minor modifications [Benya, R. V. et al. Mol. Pharmacol. 42:1058 (1992); and Wang, L-H. et al. Biochem. J. 286:641 (1992)]. Cells were grown to confluence in 24-well plates and then loaded with 100 µCi/ml myo-[2-^3H]inositol in Dulbecco's modified essential medium with 2% fetal bovine serum at 37°C for 48 hrs. Cells were washed and incubated in phosphoinositide buffer (standard buffer additionally containing 10 mM LiCl, 20 mM HEPES, 2 mM CaCl2, 2% BSA, and 1.2 mM MgSO4) for 15 min and then for 60 min at 37°C with agonists at various concentrations or with 3 nM NMB (a half-maximal effective concentration) and possible antagonists at different concentrations. Reactions were halted using ice-cold 1% HCl in methanol, and the inositol phosphates (IP) were isolated as described previously [Bologna, M. et al. Cancer 63:1714 (1989); and Endo, T. et al. J. Endocrinol. 131:313 (1991)]. Briefly, after loading of the anion exchange column, free [^3H]glycerophosphorylinositol was removed by washing with 5 mM disodium tetraborate in 60 mM sodium formate. Total [^3H]inositol phosphates were then eluted using 100 mM formic acid in 1.0 M ammonium formate as described previously [Benya, R. V. et al. Mol. Pharmacol. 42:1058 (1992); and Wang, L-H. et al. Biochem. J. 286:641 (1992)].

Row | Compound | Rat Pancreatic Acini Amylase Release Alone (10µM) [1] | Rat Pancreatic Acini Amylase Release Plus Bn(0.3 nM) [1] | fold by which cyclo SS-octa was more potent than the analog [2] | decrease in NMB receptor affinity compared with #1 ([2]; structure-function comparison of Table 1 values) | effect on NMB-stimulated increase in [^3H]IP [3] | NMB-R Transfected Cells [^3H]IP Alone (10 µ M) [3] | NMB-R Transfected Cells [^3H]IP Plus NMB (3 nM) [3] | fold greater affinity for the NMB than the GRP receptors ([2]; NMB-R transfected cells versus GRP receptors on rat pancreatic acini)
1 | CC(C)[C@@H]1NC(=O)[C@H](CCCCN)NC(=O)[C@@H](Cc2c[nH]c3ccccc23)NC(=O)[C@H](Cc2ccc(O)cc2)NC(=O)[C@H](NC(=O)[C@H](N)Cc2ccc3ccccc3c2)CSSC[C@@H](C(=O)N[C@@H](Cc2ccc3ccccc3c2)C(N)=O)NC1=O [Analog #10, [D-Cys^2]-cyclo SS-octa] (H-[d2Nal][dC]Y[dW]KVC[2Nal]-NH2; disulfide 2-7; N-terminus assumed) | 3 ± 1 % total | 16 ± 1 % total | 6 fold | 5 fold | completely inhibited | 10 ± 3 dpm x 10^3 | 4 ± 2 dpm x 10^3 | 
2 | CC(C)[C@@H]1NC(=O)[C@H](CCCCN)NC(=O)[C@@H](Cc2c[nH]c3ccccc23)NC(=O)[C@H](Cc2ccc(O)cc2)NC(=O)[C@@H](NC(=O)[C@H](N)Cc2c[nH]c3ccccc23)CSSC[C@@H](C(=O)N[C@@H](Cc2ccc3ccccc3c2)C(N)=O)NC1=O [Analog #12, [D-Trp^1]-cyclo SS-octa] (H-[dW]CY[dW]KVC[2Nal]-NH2; disulfide 2-7; N-terminus assumed) | 3 ± 1 % total | 13 ± 1 % total | 9 fold |  |  | 9 ± 2 dpm x 10^3 | 43 ± 2 dpm x 10^3 | 
3 | NCCCC[C@@H]1NC(=O)[C@@H](Cc2c[nH]c3ccccc23)NC(=O)[C@H](Cc2ccc(O)cc2)NC(=O)[C@@H](NC(=O)[C@H](N)Cc2ccc3ccccc3c2)CSSC[C@@H](C(=O)N[C@@H](Cc2ccc3ccccc3c2)C(N)=O)NC(=O)[C@H](Cc2ccccc2)NC1=O [Analog #13, [Phe^6]-cyclo SS-octa] (H-[d2Nal]CY[dW]KFC[2Nal]-NH2; disulfide 2-7; N-terminus assumed) | 3 ± 1 % total | 14 ± 1 % total | 2 fold |  | completely inhibited | 10 ± 1 dpm x 10^3 | 9 ± 4 dpm x 10^3 | > 100 fold
4 | CC(C)NCCCC[C@@H]1NC(=O)[C@@H](Cc2c[nH]c3ccccc23)NC(=O)[C@H](Cc2ccc(O)cc2)NC(=O)[C@@H](NC(=O)[C@H](N)Cc2ccccc2)CSSC[C@@H](C(=O)N[C@@H](Cc2ccc3ccccc3c2)C(N)=O)NC(=O)[C@H]([C@@H](C)O)NC1=O [Analog #15, [D-Phe^1, Lys(iPr)^5, Thr^6]-cyclo SS-octa] (H-[dF]CY[dW][Lys(iPr)]TC[2Nal]-NH2; disulfide 2-7; N-terminus assumed) | 4 ± 2 % total | 13 ± 2 % total | 9 fold |  |  | 11 ± 1 dpm x 10^3 | 67 ± 7 dpm x 10^3 | 
5 | C[C@@H](O)[C@H](NC(=O)[C@@H]1CSSC[C@H](NC(=O)[C@H](N)Cc2ccc3ccccc3c2)C(=O)N[C@@H](Cc2ccccc2)C(=O)N[C@H](Cc2c[nH]c3ccccc23)C(=O)N[C@@H](CCCCN)C(=O)N[C@@H]([C@@H](C)O)C(=O)N1)C(N)=O [Analog #18, [Phe^3, Thr^6,8]-cycle SS-octa] (H-[d2Nal]CF[dW]KTCT-NH2; disulfide 2-7) |  |  |  |  | had no effect | 11 ± 1 dpm x 10^3 | 143 ± 11 dpm x 10^3 | 
